Here are results for four compounds from US6534508B2, “Methods and compositions for treating infection using optically pure (S)-lomefloxacin” (priority 1991, dated 2003).

One series concerns M. kansasii. Kind of series: Broth microdilution MIC, M. kansasii isolates. The series is classed as cell-based. The settings on record: 10 strains, 7 days incubation, 7H9 broth.
For the next series, the system named is M. chelonei C315. Kind of series: Broth microdilution MIC, M. chelonei C315. To be noted: for MIC50: as worded in conclusions, single strain. The series is classed as cell-based.
Series [1] concerns M. tuberculosis. To be noted: 79 strains susceptible to conventional drug therapy; cited from earlier work.
Another series deals with M. marinum ATCC 927. Kind of series: Broth microdilution MIC, M. marinum ATCC 927. The series is classed as cell-based.
For series [2] the following is noted: human, in vivo, cited from earlier work.
The test system of another series is M. avium. Kind of series: Broth microdilution MIC, M. avium isolates. The format is cell-based. The settings on record: 11 strains, 7 days incubation, 7H9 broth.
Series [3] concerns M. tuberculosis. Kind of series: Broth microdilution MIC, M. tuberculosis isolates. The series is classed as cell-based. The settings on record: 12 strains, 14 days incubation, 7H9 broth.
The test system of another series is β-adrenergic. To be noted: L-form vs D-enantiomer; cited from earlier work.
[4] abbreviates: 1 strain, 4 days incubation, 7H9 broth.
Where [5] appears, read: 1 strain, 7 days incubation at 30° C., 7H9 broth.
Setting [6] is: as worded in conclusions, single strain.

Converted amounts (≈) assume the structure as drawn. Where two headings read alike, the source gives them in different places.

Regarding `CCn1cc(C(=O)O)c(=O)c2cc(F)c(N3CCNC(C)C3)c(F)c21` (racemic) [LM, 1-ethyl-6,8-difluoro-1,4-dihydro-7-(3-methyl-lpiperazinyl)-4-oxo-3-quinolinecarboxylic acid], the “Susceptibility, MIC90” value with M. kansasii was determined as 2.0 µg/mL. The results for the “Susceptibility, Range” value in the series on M. kansasii, with M. avium and in the series with M. tuberculosis [3] were 1 to 2 µg/mL, 4 to 16 µg/mL and 0.5 to 2 µg/mL, respectively. The MIC50 in the series with M. kansasii (Mycobacterium kansasii, 168 h, read-out: Susceptibility, MIC50) was 1 µg/mL (≈ 2.85 µM); in the series with M. chelonei C315 (Mycobacteroides abscessus, C315, read-out: MIC50) it was 4 µg/mL (≈ 11.4 µM); in the series on M. tuberculosis [1] it was 0.96 µg/mL (≈ 2.73 µM); in the series on M. marinum ATCC 927 (Mycobacterium marinum, ATCC927, as worded in conclusions, single strain), 4 µg/mL (≈ 11.4 µM); in the series with M. avium (Mycobacterium avium, 168 h, read-out: Susceptibility, MIC50), 8 µg/mL (≈ 22.8 µM); in the series with M. tuberculosis [3] (Mycobacterium tuberculosis, 336 h, read-out: Susceptibility, MIC50), 1 µg/mL (≈ 2.85 µM). Further, the MIC90 with M. kansasii (Mycobacterium kansasii, 168 h, read-out: Susceptibility, MIC90) was 2 µg/mL (≈ 5.69 µM); in the series with M. tuberculosis [1] it was 1.02 µg/mL (≈ 2.9 µM); with M. avium (Mycobacterium avium, 168 h, read-out: Susceptibility, MIC90) it was 16 µg/mL (≈ 45.5 µM); with M. tuberculosis [3] (Mycobacterium tuberculosis, 336 h, read-out: Susceptibility, MIC90) it was 2 µg/mL (≈ 5.69 µM). For the same compound, the minimal inhibitory concentration (MIC) in the series on M. chelonei C315 (Mycobacteroides abscessus, C315, 96 h, 1 strain, 4 days incubation, 7H9 broth, read-out: Susceptibility, MIC) amounted to 4 µg/mL (≈ 11.4 µM); with M. marinum ATCC 927 (Mycobacterium marinum, ATCC927, 168 h, 1 strain, 7 days incubation at 30° C., 7H9 broth, read-out: Susceptibility, MIC), 4 µg/mL (≈ 11.4 µM). For the same compound, in series [2] (po), the average elimination half-life entry was “approximately 8 hours”. Moreover, in series [2], the “prolongation of the half-life” value is reported as “up to 24 hours”.

For `CC(C)NC[C@H](O)COc1cccc2ccccc12` [L-form of propranolol, propranolol], in the series with β-adrenergic, the “potency relative to the D-enantiomer” value is 100 times.

Consider `CCn1cc(C(=O)O)c(=O)c2cc(F)c(N3CCN[C@H](C)C3)c(F)c21` [R-LM, (R)-lomefloxacin], for which the “Susceptibility, MIC50” value in the series on M. kansasii is 2 µg/mL; with M. avium, 16 µg/mL; in the series with M. tuberculosis [3], 2 µg/mL. Further, the “Susceptibility, MIC90” value was found to be 4 µg/mL in the series with M. kansasii, 4.0 µg/mL in the series with M. kansasii (listed as (R)-LM), 32 µg/mL with M. avium and 4 µg/mL with M. tuberculosis [3]. For the same compound, the results for the “Susceptibility, Range” value in the series with M. kansasii, in the series on M. avium and with M. tuberculosis [3] were 2 to 4 µg/mL, 4 to 32 µg/mL and 1 to 4 µg/mL, respectively. Also, the “Susceptibility, MIC” value in the series with M. chelonei C315 (setting [4]) and in the series on M. marinum ATCC 927 (setting [5]) was 4 µg/mL each time. In the series with M. chelonei C315, the MIC50 is 4.0 µg/mL (≈ 11.4 µM). Further, in the series on M. marinum ATCC 927 (setting [6]), the MIC was determined as 4.0 µg/mL (≈ 11.4 µM).

Take `CCn1cc(C(=O)O)c(=O)c2cc(F)c(N3CCN[C@@H](C)C3)c(F)c21` [S-LM, (S)-lomefloxacin]: the “Susceptibility, MIC50” value was 1 µg/mL in the series with M. kansasii, 8 µg/mL in the series on M. avium and 0.5 µg/mL in the series with M. tuberculosis [3]. Besides, the “Susceptibility, MIC90” value is 2 µg/mL in the series with M. kansasii, 2.0 µg/mL with M. kansasii (listed as (S)-LM) and 16 µg/mL in the series with M. avium. Besides, the entries for the “Susceptibility, Range” value with M. kansasii, in the series with M. avium and in the series with M. tuberculosis [3] were 1 to 2 µg/mL, 2 to 16 µg/mL and 0.25 to 1 µg/mL, respectively. The “Susceptibility, MIC” value in the series with M. chelonei C315 (setting [4]) and in the series with M. marinum ATCC 927 (setting [5]) was 2 µg/mL throughout. The same compound displayed an MIC50 in the series with M. chelonei C315 of 2.0 µg/mL (≈ 5.69 µM). This compound showed a minimal inhibitory concentration (MIC) in the series on M. marinum ATCC 927 (setting [6]) of 2.0 µg/mL (≈ 5.69 µM).
